{"source": "patent EP3372227A1", "about": "“TABLET FORMULATION OF ADEFOVIR DIPIVOXIL” (MH10 Spolka z ograniczona odpowiedzialnoscia, priority 2017, dated 2018)", "origin": "cited, not measured here", "details": "rat, in vivo", "data": [{"smiles": "Nc1ncnc2c1ncn2CCOCP(=O)(O)O", "note": "[adefovir]", "values": [{"measurement": "relative oral bioavailability", "value": 7.8}]}]}
